# Source: patent US10633418B2, “Cross-linked peptides containing non-peptide cross-linked structure, method for synthesizing cross-linked peptides, and novel organic compound used in method” (JITSUBO Co., Ltd., priority 2011, dated 2020)
# Numbered stars: 1 amine (or outer) side, 2 acyl side, 3 side chain; on linkers, the order of the positions; unused ones are H or OH. Bridge positions count the residues as written; N and C are the ends. Square brackets hold non-standard residues; d marks the D form. Peptide text beside a SMILES is read from it. Nle(6-ylidene) = O=C([C@H](CCCC=[*:3])N[*:1])[*:2]
# What was measured:
# [1] = tested on: carboxy peptidase; assay: Decomposition by carboxy peptidase (resistance to peptidase); type: in vitro ADME; settings: carboxy peptidase (isolated enzyme, SIGMA); enzyme solution 1 U/ml in PBS, peptide 0.2 mg/ml, 37° C., HPLC; time at which half of the peptide was decomposed; read-out: half period by carboxy peptidase (t1/2) (converted)
# Experimental: (§1) Resistance to a peptidase of a peptide of the present invention was investigated using a carboxy peptidase and chymotrypsin. Resistance to a peptidase was measured as described below.
# (Decomposition by Carboxy Peptidase)
# A carboxy peptidase purchased from SIGMA was treated with PBS to prepare an enzyme solution of 1 U/ml, which was then kept warm at 37° C. in a water bath. Then, a peptide solution having a concentration adjusted to 5 mg/ml with DMSO: pure water=1:1 mixed solvent was treated with PBS(−) to obtain a concentration of 1 mg/ml, and the enzyme solution and the peptide solution were mixed at 4:1 so as to give a peptide final concentration of 0.2 mg/ml. Thereafter, these were reacted quickly at 37° C. With time, the reaction solution was sampled each in an amount of 0.1 ml, and a reaction stopping solution (25% TFA in acetonitrile, 20 μL) was added to stop the reaction. Samples were analyzed by HPLC, and decomposition of a peptide by the peptidase was measured. […] Time at which half of the peptide added was decomposed was measured.
# [2] = molecular target: T1, chymotrypsin (Bos taurus, UniProt P00766); assay: Decomposition by chymotrypsin (resistance to peptidase); type: in vitro ADME; settings: chymotrypsin (isolated enzyme, SIGMA), pH 8; enzyme solution 4 U/ml in 0.1M Tris-HCl (pH8.0), peptide 0.2 mg/ml, 37° C., HPLC; read-out: half period by chymotrypsin (t1/2)
# T1 construct: purchased SIGMA
# Experimental: as §1
# (Decomposition by Chymotrypsin)
# Chymotrypsin purchased from SIGMA was treated with 0.1M Tris-HCl (pH8.0) to prepare an enzyme solution of 4 U/ml, which was then kept warm at 37° C. in a water bath. Then, a peptide solution treated with DMSO: pure water=1:1 to obtain a concentration of 5 mg/ml was treated with 0.1M Tris-HCl (pH8.0) to give a concentration of 1 mg/ml, and the enzyme solution and the peptide solution were mixed at 4:1 so as to give a peptide final concentration of 0.2 mg/ml. Thereafter, these were reacted quickly at 37° C. With time, the reaction solution was sampled each in an amount of 0.1 ml, and a reaction stopping solution (25% TFA in acetonitrile, 20 μL) was added to stop the reaction. Samples were analyzed by HPLC, and decomposition of a peptide by chymotrypsin was measured. Sampling was conducted at 0, 0.5 minutes, 1 minute and 2 minutes, and when decomposition of 50% or more was not obtained at 2 minutes, sampling was conducted further at 0.5 hours, 1 hour, 3 hours, and time at which half of the peptide added was decomposed was measured.
half-life at 0.2 mg/ml [1] [h],half-life at 0.2 mg/ml [2] [min],Structure (SMILES)
0.0495,0.97,CC(=O)N1CCCC[C@@H](C(=O)N[C@@H](Cc2ccc(O)cc2)C(=O)O)NC(=O)[C@H](CC(C)C)NC(=O)[C@H](Cc2ccc(O)cc2)NC(=O)[C@H](CCC(N)=O)NC(=O)[C@H](CO)NC(=O)[C@H](Cc2c[nH]c3ccccc23)NC(=O)CN(C(=O)[C@@H](N)Cc2ccc(O)cc2)CCCC1 [Bdev-19]
79,2.07,CC(C)C[C@@H]1NC(=O)[C@H](Cc2ccc(O)cc2)NC(=O)[C@H](CCC(N)=O)NC(=O)[C@H](CO)NC(=O)[C@H](Cc2c[nH]c3ccccc23)NC(=O)[C@@H](NC(=O)[C@@H](N)Cc2ccc(O)cc2)CCC/C=C\CCC[C@@H](C(=O)N[C@@H](Cc2ccc(O)cc2)C(=O)O)NC1=O [Comp. 3] (H-Y[Nle(6-ylidene)]WSQYL[Nle(6-ylidene)]Y-OH; staple (Z) 2-8)
